Results reported in patent publication US7429592B2, “Cyanoanthranilamide derivatives and the use thereof as medicaments” (Schering Aktienegesellschaft, priority 2001, dated 2008).

Tests used:
Cytochrome P450 1A2 = molecular target: T1, Cytochrome P450 1A2 (Homo sapiens, UniProt P05177); assay: Cytochrome P450 inhibition (Crespi et al.); assay type: in vitro ADME; settings: baculovirus/insect cell-expressed human isoenzyme 1A2; read-out: Inhibition of the Cytochrome P450 Isoenzymes IC50, 1A2
T1 construct: host or cells: baculovirus/insect cells
T1 sequence (P05177 1-516): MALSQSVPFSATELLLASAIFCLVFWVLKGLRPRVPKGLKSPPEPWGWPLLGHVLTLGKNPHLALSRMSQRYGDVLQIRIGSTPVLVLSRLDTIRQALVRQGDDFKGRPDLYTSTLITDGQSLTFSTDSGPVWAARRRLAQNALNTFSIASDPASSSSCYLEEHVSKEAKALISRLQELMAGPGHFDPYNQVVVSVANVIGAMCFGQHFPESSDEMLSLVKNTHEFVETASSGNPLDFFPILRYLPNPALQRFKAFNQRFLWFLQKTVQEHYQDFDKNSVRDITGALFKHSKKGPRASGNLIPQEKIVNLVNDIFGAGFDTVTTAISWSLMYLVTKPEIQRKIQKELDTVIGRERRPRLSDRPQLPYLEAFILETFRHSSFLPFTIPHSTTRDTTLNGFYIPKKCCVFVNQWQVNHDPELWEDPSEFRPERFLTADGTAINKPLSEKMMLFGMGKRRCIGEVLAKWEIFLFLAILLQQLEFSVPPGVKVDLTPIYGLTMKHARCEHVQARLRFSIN
Protocol: (§1) The Cytochrome P450 inhibition was performed according to the publication of Crespi et al. (Anal. Biochem., 248, 188-190 (1997)) with use of baculovirus/insect cell-expressed, human Cytochrome P 450 isoenzymes (1A2, 2C9, 2C19, 2D6, 3A4).

Cytochrome P450 2C9 = molecular target: T2, Cytochrome P450 2C9 (Homo sapiens, UniProt P11712); assay: Cytochrome P450 inhibition (Crespi et al.); assay type: in vitro ADME; settings: baculovirus/insect cell-expressed human isoenzyme 2C9; read-out: Inhibition of the Cytochrome P450 Isoenzymes IC50, 2C9
T2 construct: host or cells: baculovirus/insect cells
Protocol: as §1

Cytochrome P450 2C19 = molecular target: T3, Cytochrome P450 2C19 (Homo sapiens, UniProt P33261); assay: Cytochrome P450 inhibition (Crespi et al.); assay type: in vitro ADME; settings: baculovirus/insect cell-expressed human isoenzyme 2C19; read-out: Inhibition of the Cytochrome P450 Isoenzymes IC50, 2C19
T3 construct: host or cells: baculovirus/insect cells
Protocol: as §1

Cytochrome P450 3A4 = molecular target: T4, Cytochrome P450 3A4 (Homo sapiens, UniProt P08684); assay: Cytochrome P450 inhibition (Crespi et al.); assay type: in vitro ADME; settings: baculovirus/insect cell-expressed human isoenzyme 3A4; read-out: Inhibition of the Cytochrome P450 Isoenzymes IC50, 3A4
T4 construct: host or cells: baculovirus/insect cells
Protocol: as §1

Cytochrome P450 2D6 = molecular target: T5, Cytochrome P450 2D6 (Homo sapiens, UniProt P10635); assay: Cytochrome P450 inhibition (Crespi et al.); assay type: in vitro ADME; settings: baculovirus/insect cell-expressed human isoenzyme 2D6; read-out: Inhibition of the Cytochrome P450 Isoenzymes IC50, 2D6
T5 construct: host or cells: baculovirus/insect cells
Protocol: as §1

VEGFR II (KDR) = VEGFR II (KDR) (Homo sapiens, UniProt P35968); assay: Inhibition of the KDR kinase activity (33P-ATP, poly-(Glu4Tyr) substrate, phosphocellulose filter); assay type: biochemical; settings: 10 minutes at room temperature; phosphate incorporation
Protocol: • Stock solution A: 3 mmol of ATP in water, pH 7.0 (−70° C.) • Stock solution B: g-33P-ATP 1 mCi/100 μl • Stock solution C: poly-(Glu4 Tyr) 10 mg/ml in water Solution for Dilutions • Substrate solvent: 10 mmol of DTT, 10 mmol of manganese chloride, 100 mmol of magnesium chloride • Enzyme solution: 120 mmol of tris/HCl, pH 7.5, […] of sodium vanadium oxide
Inhibition of the KDR- and FLT-1 Kinase Activity in the Presence of the Compounds According to the Invention
In a microtiter plate (without protein binding) that tapers to a point, 10 μl of substrate mix (10 μl of volume of ATP stock solution A+25 μCi of g-33P-ATP (about 2.5 μl of stock solution B)+30 μl of poly-(Glu4Tyr) stock solution C+1.21 ml of substrate solvent), 10 μl of inhibitor solution (substances corresponding to the dilutions, 3% DMSO in substrate solvent as a control) and 10 μl of enzyme solution (11.25 μg of enzyme stock solution (KDR or FLT-1 kinase) are added at 4° C. in 1.25 ml of enzyme solution (dilute). It is thoroughly mixed and incubated for 10 minutes at room temperature. Then, 10 μl of stop solution ([…] of EDTA, pH 7.0) is added, mixed, and 10 μl of the solution is transferred to a P 81 phosphocellulose filter. Then, it is washed several times in 0.1 M phosphoric acid. The filter paper is dried, coated with Meltilex and measured in a microbeta counter.
The IC50 values are determined from the inhibitor concentration, which is necessary to inhibit the phosphate incorporation to 50% of the uninhibited incorporation after removal of the blank reading (EDTA-stopped reaction).

Sequence of VEGFR II (KDR) (P35968 20-1356, species assumed): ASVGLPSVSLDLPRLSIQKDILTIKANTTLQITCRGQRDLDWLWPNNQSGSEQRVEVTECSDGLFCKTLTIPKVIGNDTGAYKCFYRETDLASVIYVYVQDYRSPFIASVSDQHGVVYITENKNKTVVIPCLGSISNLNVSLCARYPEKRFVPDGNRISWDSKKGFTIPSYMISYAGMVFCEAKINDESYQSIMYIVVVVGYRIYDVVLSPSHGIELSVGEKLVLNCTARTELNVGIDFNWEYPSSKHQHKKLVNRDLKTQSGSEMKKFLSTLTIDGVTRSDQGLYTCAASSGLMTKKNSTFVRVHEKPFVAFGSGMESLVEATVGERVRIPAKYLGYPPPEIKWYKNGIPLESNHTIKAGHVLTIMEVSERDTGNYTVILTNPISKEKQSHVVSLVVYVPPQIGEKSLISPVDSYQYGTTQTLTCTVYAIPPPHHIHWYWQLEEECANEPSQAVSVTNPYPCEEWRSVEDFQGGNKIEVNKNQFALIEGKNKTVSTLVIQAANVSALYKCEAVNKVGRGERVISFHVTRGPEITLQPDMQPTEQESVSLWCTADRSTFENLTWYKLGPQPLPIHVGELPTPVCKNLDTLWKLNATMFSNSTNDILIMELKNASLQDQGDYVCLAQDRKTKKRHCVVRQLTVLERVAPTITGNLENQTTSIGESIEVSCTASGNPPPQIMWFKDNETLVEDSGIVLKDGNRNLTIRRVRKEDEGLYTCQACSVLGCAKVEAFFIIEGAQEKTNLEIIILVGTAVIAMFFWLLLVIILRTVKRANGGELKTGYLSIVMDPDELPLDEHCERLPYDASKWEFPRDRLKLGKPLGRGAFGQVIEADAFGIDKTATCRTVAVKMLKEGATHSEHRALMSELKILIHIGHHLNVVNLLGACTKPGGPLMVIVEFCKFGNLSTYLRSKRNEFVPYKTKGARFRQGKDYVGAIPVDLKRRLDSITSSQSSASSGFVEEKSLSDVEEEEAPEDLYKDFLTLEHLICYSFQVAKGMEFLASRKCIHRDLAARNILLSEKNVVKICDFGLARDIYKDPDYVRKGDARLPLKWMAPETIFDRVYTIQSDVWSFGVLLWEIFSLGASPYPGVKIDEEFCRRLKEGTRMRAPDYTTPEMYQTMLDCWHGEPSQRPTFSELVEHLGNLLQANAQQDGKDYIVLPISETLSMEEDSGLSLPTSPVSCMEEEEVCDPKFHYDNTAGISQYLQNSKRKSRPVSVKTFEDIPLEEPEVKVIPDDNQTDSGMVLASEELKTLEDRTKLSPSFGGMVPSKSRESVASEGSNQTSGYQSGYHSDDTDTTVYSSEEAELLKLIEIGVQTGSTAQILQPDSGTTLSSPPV
T3 sequence (P33261 whole entry): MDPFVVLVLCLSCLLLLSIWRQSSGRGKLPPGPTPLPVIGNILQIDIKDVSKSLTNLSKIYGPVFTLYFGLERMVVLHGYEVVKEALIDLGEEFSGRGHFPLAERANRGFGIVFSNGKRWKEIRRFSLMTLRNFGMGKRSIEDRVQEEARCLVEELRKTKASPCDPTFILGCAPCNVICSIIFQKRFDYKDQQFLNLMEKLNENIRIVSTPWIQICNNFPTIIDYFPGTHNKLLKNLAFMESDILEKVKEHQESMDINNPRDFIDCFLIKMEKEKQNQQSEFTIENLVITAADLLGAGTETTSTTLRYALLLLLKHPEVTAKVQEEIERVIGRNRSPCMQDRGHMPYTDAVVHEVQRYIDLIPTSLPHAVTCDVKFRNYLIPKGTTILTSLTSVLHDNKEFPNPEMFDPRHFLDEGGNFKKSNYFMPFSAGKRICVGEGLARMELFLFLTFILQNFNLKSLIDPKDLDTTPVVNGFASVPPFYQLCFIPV
T2 sequence (P11712 whole entry): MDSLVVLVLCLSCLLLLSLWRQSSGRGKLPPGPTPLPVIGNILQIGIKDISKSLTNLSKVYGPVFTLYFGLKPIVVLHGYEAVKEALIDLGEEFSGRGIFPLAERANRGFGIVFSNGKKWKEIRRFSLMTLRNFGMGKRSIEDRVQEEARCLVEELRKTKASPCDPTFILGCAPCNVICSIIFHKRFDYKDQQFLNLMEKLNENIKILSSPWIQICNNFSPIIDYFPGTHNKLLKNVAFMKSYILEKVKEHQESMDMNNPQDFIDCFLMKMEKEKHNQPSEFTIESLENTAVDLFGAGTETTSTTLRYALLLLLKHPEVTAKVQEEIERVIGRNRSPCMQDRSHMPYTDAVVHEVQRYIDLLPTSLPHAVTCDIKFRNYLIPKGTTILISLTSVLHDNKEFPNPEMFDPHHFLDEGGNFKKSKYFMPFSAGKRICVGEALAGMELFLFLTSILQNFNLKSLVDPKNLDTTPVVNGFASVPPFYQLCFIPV
T4 sequence (P08684 whole entry): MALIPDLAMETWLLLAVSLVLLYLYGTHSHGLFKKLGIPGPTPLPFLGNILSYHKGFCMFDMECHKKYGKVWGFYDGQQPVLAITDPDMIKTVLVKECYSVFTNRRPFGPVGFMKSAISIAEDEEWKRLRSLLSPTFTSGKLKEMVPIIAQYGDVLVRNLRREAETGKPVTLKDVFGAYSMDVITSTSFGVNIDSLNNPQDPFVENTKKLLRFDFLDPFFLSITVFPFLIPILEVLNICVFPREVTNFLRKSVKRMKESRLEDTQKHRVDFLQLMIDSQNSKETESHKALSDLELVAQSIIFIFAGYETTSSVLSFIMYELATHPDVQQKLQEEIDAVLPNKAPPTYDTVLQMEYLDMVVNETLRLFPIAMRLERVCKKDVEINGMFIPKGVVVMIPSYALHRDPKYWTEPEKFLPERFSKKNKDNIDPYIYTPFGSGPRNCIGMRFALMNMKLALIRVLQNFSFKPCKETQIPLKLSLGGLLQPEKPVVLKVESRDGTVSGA
T5 sequence (P10635 whole entry): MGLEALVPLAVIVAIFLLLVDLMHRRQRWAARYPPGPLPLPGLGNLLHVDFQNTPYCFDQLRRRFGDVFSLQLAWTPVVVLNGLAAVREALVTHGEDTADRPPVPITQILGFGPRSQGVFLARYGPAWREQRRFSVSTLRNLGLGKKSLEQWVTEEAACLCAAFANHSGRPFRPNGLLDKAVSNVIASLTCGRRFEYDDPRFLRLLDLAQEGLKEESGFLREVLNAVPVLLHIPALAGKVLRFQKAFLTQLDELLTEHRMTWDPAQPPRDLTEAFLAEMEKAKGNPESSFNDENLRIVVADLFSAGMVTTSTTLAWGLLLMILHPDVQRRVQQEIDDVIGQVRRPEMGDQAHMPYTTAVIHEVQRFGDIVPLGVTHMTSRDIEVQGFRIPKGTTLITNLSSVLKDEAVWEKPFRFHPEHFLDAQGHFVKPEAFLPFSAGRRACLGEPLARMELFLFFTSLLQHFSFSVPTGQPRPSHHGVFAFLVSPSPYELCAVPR

| IC50 (VEGFR II (KDR)) | melting point | Compound | further results |
| --- | --- | --- | --- |
| 10 nM | – | N#Cc1cc(CNc2ccccc2C(=O)Nc2cc3ccccc3cn2)ccn1 [Example 1] | IC50 (Cytochrome P450 1A2): > 30000 nM; IC50 (Cytochrome P450 2C9): 1200 nM; IC50 (Cytochrome P450 2C19): 1800 nM; IC50 (Cytochrome P450 3A4): > 30000 nM; IC50 (Cytochrome P450 2D6): > 30000 nM |
| 200 nM | 155 to 158 °C | Cn1ncc2ccc(NC(=O)c3ccccc3NCc3ccnc(C#N)c3)cc21 [Example 10] | – |
| 50 nM | 173.8 °C | N#Cc1ccc(CNc2ccccc2C(=O)Nc2cc3ccccc3cn2)cn1 [Example 2] | – |
| 100 nM | – | N#Cc1cc(CNc2ccccc2C(=O)Nc2ccc3cn[nH]c3c2)ccn1 [Example 16] | – |
| 300 nM | 173.4 °C | COc1ccc2cc(NC(=O)c3ccccc3NCc3ccc(C#N)nc3)c(=O)oc2c1 [Example 6] | – |
| 50 nM | 233.4 °C (dec.) | N#Cc1ncccc1CNc1ccccc1C(=O)Nc1cc2ccccc2cn1 [Example 3] | – |
| 700 nM | 153 to 155 °C | COc1ccc2cc(C)c(NC(=O)c3ccccc3NCc3ccnc(C#N)c3)nc2c1 [Example 12] | – |
| 200 nM | – | Cn1cc2ccc(NC(=O)c3ccccc3NCc3ccnc(C#N)c3)cc2n1 [Example 15] | – |
| 300 nM | – | N#Cc1ccc(CNc2ccccc2C(=O)Nc2ccc3c(c2)CC(=O)N3)cn1 [Example 4] | – |
| 200 nM | 165 to 167 °C | COc1ccc2cc(NC(=O)c3ccccc3NCc3ccnc(C#N)c3)c(=O)oc2c1 [Example 11] | – |
| 200 nM | – | N#Cc1cc(CNc2ccccc2C(=O)Nc2ccc3c(c2)NC(=O)C3)ccn1 [Example 13] | – |
| 300 nM | – | N#CCn1ncc2ccc(NC(=O)c3ccccc3NCc3ccnc(C#N)c3)cc21 [Example 5] | – |
